Test results from patent US20070249670A1, “Glycogen Phosphorylase Inhibitor Compounds and Pharmaceutical Compositions Thereof” (SMITHKLINE BEECHAM CORPORATION, priority 2004, published 2007).

Target: T1, human liver glycogen phosphorylase a (HLGPa) (Homo sapiens, UniProt P06737)
T1 construct: creating a full-length cDNA fused at the 5′ end to codons for methionine-glycine-alanine-histidine; 6xHis tag (leader Met-Gly-Ala-His6-Gly-Gly) (N); made in house; host or cells: E. coli (bacterial expression plasmid pTXK1007LTev)
T1 sequence (P06737 2-847 limits assumed): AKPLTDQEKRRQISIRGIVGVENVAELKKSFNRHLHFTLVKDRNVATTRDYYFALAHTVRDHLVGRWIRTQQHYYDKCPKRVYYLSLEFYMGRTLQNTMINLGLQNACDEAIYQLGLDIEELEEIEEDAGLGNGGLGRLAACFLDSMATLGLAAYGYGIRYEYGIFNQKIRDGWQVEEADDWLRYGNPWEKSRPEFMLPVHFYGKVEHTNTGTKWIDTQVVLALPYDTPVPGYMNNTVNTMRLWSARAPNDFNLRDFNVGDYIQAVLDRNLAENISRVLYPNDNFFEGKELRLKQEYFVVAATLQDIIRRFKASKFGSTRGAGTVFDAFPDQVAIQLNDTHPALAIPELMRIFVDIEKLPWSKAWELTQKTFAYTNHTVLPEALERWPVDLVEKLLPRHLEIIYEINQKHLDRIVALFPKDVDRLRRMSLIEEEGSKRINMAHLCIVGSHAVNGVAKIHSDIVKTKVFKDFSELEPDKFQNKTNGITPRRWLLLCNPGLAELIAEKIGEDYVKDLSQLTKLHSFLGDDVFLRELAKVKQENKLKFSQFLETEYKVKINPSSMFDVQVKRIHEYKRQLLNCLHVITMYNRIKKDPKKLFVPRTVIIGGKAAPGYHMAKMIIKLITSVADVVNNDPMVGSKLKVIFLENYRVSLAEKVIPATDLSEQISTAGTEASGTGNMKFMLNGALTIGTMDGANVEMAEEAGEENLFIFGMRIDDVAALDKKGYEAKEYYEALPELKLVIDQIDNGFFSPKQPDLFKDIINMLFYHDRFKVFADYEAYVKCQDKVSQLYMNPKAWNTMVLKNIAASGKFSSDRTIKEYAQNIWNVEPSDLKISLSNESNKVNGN
Assay: Human liver glycogen phosphorylase a enzymatic activity assay (coupled, fluorescent resorufin readout, with and without 10 mM glucose)
Assay type: biochemical
Conditions: human liver glycogen phosphorylase a; table does not say whether with or without 10 mM glucose

| SMILES | IC50 [nM] |
| --- | --- |
| Cc1cc(C)c(NC(=O)Nc2cc(-c3ccc(F)c(F)c3)ccc2C(=O)NC2(C(=O)O)CCCCCCC2)c(C)c1 [Example 227, 1-({[3′,4′-Difluoro-3-({[(2,4,6-trimethylphenyl)amino]carbonyl}amino)-4-biphenylyl]carbonyl}amino)cyclooctanecarboxylic acid] | 1 |
| Cc1cc(C)c(NC(=O)Nc2cc(-c3ccc4c(c3)OCCO4)ccc2C(=O)N[C@H](C(=O)O)C2CCCCC2)c(C)c1 [Example 228, (2S)-Cyclohexyl({[4-(2,3-dihydro-1,4-benzodioxin-6-yl)-2-({[(2,4,6-trimethylphenyl)amino]carbonyl}amino)phenyl]carbonyl}amino)ethanoic acid] | 4 |
| COc1ccc(-c2ccc(C(=O)N[C@H](C(=O)O)C3CCCCC3)c(NC(=O)Nc3c(C)cc(C)cc3C)c2)cc1OC [Example 229, (2S)-({[3′,4′-Bis(methyloxy)-3-({[(2,4,6-trimethylphenyl)amino]carbonyl}amino)-4-biphenylyl]carbonyl}amino)(cyclohexyl)ethanoic acid] | 3 |
| Cc1cc(C)c(NC(=O)Nc2cc(F)c(F)cc2C(=O)N[C@H](C(=O)O)C2CCCCC2)c(C)c1 [Example 230, (2S)-Cyclohexyl({[4,5-difluoro-2-({[(2,4,6-trimethylphenyl)amino]carbonyl}amino)phenyl]carbonyl}amino)ethanoic acid] | 58 |
| COc1ccc(-c2ccc(C(=O)NC3(C(=O)O)CCCCCCC3)c(NC(=O)Nc3c(C)cc(C)cc3C)c2)cc1 [Example 231, 1-({[4′-(Methyloxy)-3-({[(2,4,6-trimethylphenyl)amino]carbonyl}amino)-4-biphenylyl]carbonyl}amino)cyclooctanecarboxylic acid] | 1 |
| COc1ccc(-c2ccc(C(=O)N[C@H](C(=O)O)[C@@H](C)OC(C)(C)C)c(NC(=O)Nc3c(Cl)cc(OC(F)(F)F)cc3Cl)c2)cc1 [Example 232, N-{[3-{[({2,6-Dichloro-4-[(trifluoromethyl)oxy]phenyl}amino)carbonyl]amino}-4′-(methyloxy)-4-biphenylyl]carbonyl}-O-(1,1-dimethylethyl)-L-threonine] | 7 |
| Cc1cc(C)c(NC(=O)Nc2cc(-c3cccc(F)c3)ccc2C(=O)N[C@H](C(=O)O)[C@@H](C)OC(C)(C)C)c(C)c1 [Example 233, O-(1,1-Dimethylethyl)-N-{[3′-fluoro-3-({[(2,4,6-trimethylphenyl)amino]carbonyl}amino)-4-biphenylyl]carbonyl}-L-threonine] | 23 |
| Cc1cc(C)c(NC(=O)Nc2cc(-c3cccc(F)c3)ccc2C(=O)N[C@H](C(=O)O)C2CCCCC2)c(C)c1 [Example 234, (2S)-Cyclohexyl({[3′-fluoro-3-({[(2,4,6-trimethylphenyl)amino]carbonyl}amino)-4-biphenylyl]carbonyl}amino)ethanoic acid] | 24 |
| COc1ccc(-c2ccc(C(=O)N[C@H](C(=O)O)[C@@H](C)OC(C)(C)C)c(NC(=O)Nc3c(C)cc(C)cc3C)c2)cc1F [Example 235, O-(1,1-Dimethylethyl)-N-{[3′-fluoro-4′-(methyloxy)-3-({[(2,4,6-trimethylphenyl)amino]carbonyl}amino)-4-biphenylyl]carbonyl}-L-threonine] | 13 |
| CCCc1cc(C)c(NC(=O)Nc2cc(-c3ccc(OC)cc3)ccc2C(=O)N[C@H](C(=O)O)[C@@H](C)OC(C)(C)C)c(C)c1 [Example 236, O-(1,1-Dimethylethyl)-N-{[3-({[(2,6-dimethyl-4-propylphenyl)amino]carbonyl}amino)-4′-(methyloxy)-4-biphenylyl]carbonyl}-L-threonine] | 4 |
| COc1ccc(-c2ccc(C(=O)N[C@H](C(=O)O)C3CCCCC3)c(NC(=O)Nc3c(C)cc(C)cc3C)c2)cc1F [Example 237, (2S)-Cyclohexyl({[3′-fluoro-4′-(methyloxy)-3-({[(2,4,6-trimethylphenyl)amino]carbonyl}amino)-4-biphenylyl]carbonyl}amino)ethanoic acid] | 20 |
| COc1ccc(-c2ccc(C(=O)NC3(C(=O)O)CCCCCCC3)c(NC(=O)Nc3c(C)cc(C)cc3C)c2)cc1F [Example 238, 1-({[3′-Fluoro-4′-(methyloxy)-3-({[(2,4,6-trimethylphenyl)amino]carbonyl}amino)-4-biphenylyl]carbonyl}amino)cyclooctanecarboxylic acid] | 10 |
| COc1ccc(NC(=O)Nc2cc3ccccc3cc2C(=O)N[C@H](C(=O)O)C2CCCCC2)c(OC)c1 [Example 239, (2S)-[({3-[({[2,4-bis(methyloxy)phenyl]amino}carbonyl)amino]-2-naphthalenyl}carbonyl)amino](cyclohexyl)ethanoic acid] | 2380 |
| O=C(Nc1cc(C(F)(F)F)cc(C(F)(F)F)c1)Nc1cc2ccccc2cc1C(=O)N[C@H](C(=O)O)C1CCCCC1 [Example 240, (2S)-[({3-[({[3,5-bis(trifluoromethyl)phenyl]amino}carbonyl)amino]-2-naphthalenyl}carbonyl)amino](cyclohexyl)ethanoic acid] | 8180 |
| Cc1cccc(C)c1NC(=O)Nc1cc2ccccc2cc1C(=O)N(CC(=O)O)Cc1ccccn1 [Example 241, N-{[3-({[(2,6-dimethylphenyl)amino]carbonyl}amino)-2-naphthalenyl]carbonyl}-N-(2-pyridinylmethyl)glycine] | 3610 |
| O=C(O)CN(Cc1ccccn1)C(=O)c1cc2ccccc2cc1NC(=O)Nc1c(Cl)cc(Cl)cc1Cl [Example 242, N-(2-pyridinylmethyl)-N-{[3-({[(2,4,6-trichlorophenyl)amino]carbonyl}amino)-2-naphthalenyl]carbonyl}glycine] | 2860 |
| Cc1cccc(C)c1NC(=O)Nc1cc2ccccc2cc1C(=O)N(CC(=O)O)CC1CCCCC1 [Example 243, N-(cyclohexylmethyl)-N-{[3-({[(2,6-dimethylphenyl)amino]carbonyl}amino)-2-naphthalenyl]carbonyl}glycine] | 1770 |
| Cc1cccc(C)c1NC(=O)Nc1cc2ccccc2cc1C(=O)N(CC(=O)O)C1CCCC1 [Example 244, N-cyclopentyl-N-{[3-({[(2,6-dimethylphenyl)amino]carbonyl}amino)-2-naphthalenyl]carbonyl}glycine] | 970 |
| Cc1cccc(C)c1NC(=O)Nc1cc2ccccc2cc1C(=O)N(CC(=O)O)C1CCCCC1 [Example 245, N-cyclohexyl-N-{[3-({[(2,6-dimethylphenyl)amino]carbonyl}amino)-2-naphthalenyl]carbonyl}glycine] | 2130 |
| Cc1cccc(C)c1NC(=O)Nc1cc2ccccc2cc1C(=O)N(CC(=O)O)CC(=O)O [Example 246, 2,2′-({[3-({[(2,6-dimethylphenyl)amino]carbonyl}amino)-2-naphthalenyl]carbonyl}imino)diacetic acid] | 2120 |
| CCCCc1ccc(NC(=O)Nc2cc3ccccc3cc2C(=O)N[C@H](C(=O)O)C2CCCCC2)cc1 [Example 247, (2S)-({[3-({[(4-butylphenyl)amino]carbonyl}amino)-2-naphthalenyl]carbonyl}amino)(cyclohexyl)ethanoic acid] | 10400 |
| O=C(Nc1ccc2c(c1)CCO2)Nc1cc2ccccc2cc1C(=O)N[C@H](C(=O)O)C1CCCCC1 [Example 248, (2S)-cyclohexyl{[(3-{[(2,3-dihydro-1-benzofuran-5-ylamino)carbonyl]amino}-2-naphthalenyl)carbonyl]amino}ethanoic acid] | 15100 |
| Cc1onc(-c2ccccc2)c1NC(=O)Nc1cc2ccccc2cc1C(=O)N[C@H](C(=O)O)C1CCCCC1 [Example 249, (2S)-cyclohexyl({[3-({[(5-methyl-3-phenyl-4-isoxazolyl)amino]carbonyl}amino)-2-naphthalenyl]carbonyl}amino)ethanoic acid] | 17400 |
| C[C@@H](C(=O)O)N(Cc1ccccc1)C(=O)c1cc2ccccc2cc1NC(=O)Nc1c(Cl)cccc1Cl [Example 250, N-{[3-({[(2,6-dichlorophenyl)amino]carbonyl}amino)-2-naphthalenyl]carbonyl}-N-(phenylmethyl)-L-alanine] | 7770 |
| O=C(Nc1cc2ccccc2cc1C(=O)N(Cc1ccccc1)[C@@H](Cc1ccccc1)C(=O)O)Nc1c(Cl)cccc1Cl [Example 251, N-{[3-({[(2,6-dichlorophenyl)amino]carbonyl}amino)-2-naphthalenyl]carbonyl}-N-(phenylmethyl)phenylalanine] | 12200 |
| CCCCN(CC(=O)O)C(=O)c1cc2ccccc2cc1NC(=O)Nc1c(Cl)cccc1Cl [Example 252, N-butyl-N-{[3-({[(2,6-dichlorophenyl)amino]carbonyl}amino)-2-naphthalenyl]carbonyl}glycine] | 650 |
